These results are taken from patent US20090076199A1, “RED DYE MIXTURE” (LANXESS DEUTSCHLAND GMBH, priority 2007, published 2009).

Assay type in all cases: physicochemical
Series [1] in a line: Maximum solubility of the dyes in methyl benzoate and spectral data of the saturated solutions. Particulars: for Solubility (maximum solubility): in methyl benzoate; for E11 = Extinction (absorbance) of 1 g of this solution in 100 ml of N-methyl-pyrrolidone, 1 cm cell: saturated solution of the dye alone in methyl benzoate. The procedure:
The maximum solubility of the dyes was determined in methyl benzoate.

The nature of series [2]: Mass colouring of polystyrene granules, injection moulding at 240° C., fastness. The conditions noted are these: 0.02 g dye per 100 g polystyrene, transparent sheets. The method, then:
a) 100 g of polystyrene granules and 0.02 g of the dye from Example 4 are mixed intensely in a drum mixer for 15 min. The dry-stained granules are processed on a screw injection moulding machine at 240° C. This gives transparent bluish red sheets of very good light fastness and migration fastness.

Series [3] can be described thus: Mass colouring of transparent polyethylene terephthalate, twin-screw extruder at 280° C., fastness. Particulars: 0.025 g dye per 100 g transparent polyethylene terephthalate. The procedure:
b) 0.025 g of the dye from Example 4 are mixed with 100 g of a transparent polyethylene terephthalate grade and the mixture is homogenized in a twin-screw extruder at 280° C. This gives a transparent bluish red coloration with good light fastness and migration fastness. After subsequent granulation the coloured plastic can be processed in accordance with the typical methods of thermoplastic shaping.

The nature of series [4]: Mass colouring of polycarbonate, twin-screw extruder at 290° C., fastness. The conditions noted are these: 0.03 g dye per 100 g polycarbonate. The method, then: c) 100 g of a commercially customary polycarbonate are dry-mixed in granule form with 0.03 g of the dye from Example 4. The granules dusted in this way are homogenized in a twin-screw extruder at 290° C. This gives a transparent bluish red coloration with good light fastness and migration fastness. The coloured polycarbonate is extruded as a strand from the extruder and processed to granules. The granules can be processed by the typical methods of processing thermoplastic compounds.

With `O=C1c2c(Cl)c(Cl)c(Cl)c(Cl)c2C2=Nc3cccc4cccc(c34)N12` [Dye (7), reference compound], in series [1], the “Solubility (maximum solubility)” value is listed as 0.107 g/100 ml and the “E11 = Extinction (absorbance) of 1 g of this solution in 100 ml of N-methyl-pyrrolidone, 1 cm cell” value came out at 0.17.
In the same order, the values of `Nc1c(Oc2ccc(C3(c4ccc(Oc5cc(O)c6c(c5N)C(=O)c5ccccc5C6=O)cc4)CCCCC3)cc2)cc(O)c2c1C(=O)c1ccccc1C2=O` [Dye (15)] are 0.57 g/100 ml and 1.8.
In the case of `Nc1c(OCCOc2ccc(OCCOc3cc(O)c4c(c3N)C(=O)c3ccccc3C4=O)cc2)cc(O)c2c1C(=O)c1ccccc1C2=O` [Example 4], the values for the light fastness entry in series [2], in series [3] and in series [4] were “very good”, “good” and “good”, respectively. In addition, the migration fastness result is listed as “very good” in series [2], “good” in series [3] and “good” in series [4].
